Experimental data published in ChEMBL document CHEMBL1201862, “PubChem BioAssay data set” (2004).
Calls of active or inactive are those of the source.

Tests used:
[1] = biological target: T1, Polyadenylate-binding protein 1 (Homo sapiens, UniProt P11940); experiment: PABP1 MLLE–PAM2 binding inhibitor potency, dose response, biochemical, fluorescence polarization, FITC-PAM2 peptide (AID 602259); format: functional; settings: read-out: IC50_Mean
[2] = biological target: Glucose-6-phosphate 1-dehydrogenase (Homo sapiens, UniProt P11413); experiment: human G6PD enzyme inhibitors, dose response, selectivity assay for P. falciparum G6PD inhibitor project, biochemical, fluorescence (AID 504792); format: functional
[3] = biological target: T2, Runt-related transcription factor 1/Core-binding factor subunit beta (Homo sapiens, UniProt Q01196+Q13951); experiment: inhibitors of RUNX1 Runt–CBFb-SMMHC binding, primary screen, biochemical, FRET, Cerulean-Runt, Venus-CBFb-SMMHC, uHTS (AID 1434); format: protein assay;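 also: partner is the CBFb-SMMHC leukemia fusion protein rather than wild-type CBFb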
T2 sequence (Q01196 whole entry, the tested form may be a part): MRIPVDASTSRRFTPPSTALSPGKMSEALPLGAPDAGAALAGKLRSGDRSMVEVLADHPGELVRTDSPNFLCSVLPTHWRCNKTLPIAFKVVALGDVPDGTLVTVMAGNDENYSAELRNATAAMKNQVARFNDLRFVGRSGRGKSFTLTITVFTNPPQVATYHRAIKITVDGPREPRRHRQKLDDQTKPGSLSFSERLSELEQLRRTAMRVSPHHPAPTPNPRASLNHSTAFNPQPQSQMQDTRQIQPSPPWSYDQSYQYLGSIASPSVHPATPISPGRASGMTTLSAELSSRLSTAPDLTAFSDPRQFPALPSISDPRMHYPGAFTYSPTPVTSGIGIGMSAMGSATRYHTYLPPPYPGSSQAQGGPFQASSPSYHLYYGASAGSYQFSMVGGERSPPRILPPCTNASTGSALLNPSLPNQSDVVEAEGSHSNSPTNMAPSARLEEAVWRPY
T2 sequence (Q13951 whole entry, the tested form may be a part): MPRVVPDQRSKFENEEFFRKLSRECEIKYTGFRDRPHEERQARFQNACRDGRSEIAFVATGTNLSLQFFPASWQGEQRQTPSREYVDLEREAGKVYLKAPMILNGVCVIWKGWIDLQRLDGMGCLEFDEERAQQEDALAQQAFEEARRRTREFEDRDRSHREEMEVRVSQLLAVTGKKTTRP

[4] = biological target: T3, Mannose-6-phosphate isomerase (Homo sapiens, UniProt P34949); experiment: human PMI inhibitors, high substrate, primary screen, biochemical, fluorescence intensity, high mannose 6-phosphate (AID 1220)
T3 sequence (P34949 whole entry): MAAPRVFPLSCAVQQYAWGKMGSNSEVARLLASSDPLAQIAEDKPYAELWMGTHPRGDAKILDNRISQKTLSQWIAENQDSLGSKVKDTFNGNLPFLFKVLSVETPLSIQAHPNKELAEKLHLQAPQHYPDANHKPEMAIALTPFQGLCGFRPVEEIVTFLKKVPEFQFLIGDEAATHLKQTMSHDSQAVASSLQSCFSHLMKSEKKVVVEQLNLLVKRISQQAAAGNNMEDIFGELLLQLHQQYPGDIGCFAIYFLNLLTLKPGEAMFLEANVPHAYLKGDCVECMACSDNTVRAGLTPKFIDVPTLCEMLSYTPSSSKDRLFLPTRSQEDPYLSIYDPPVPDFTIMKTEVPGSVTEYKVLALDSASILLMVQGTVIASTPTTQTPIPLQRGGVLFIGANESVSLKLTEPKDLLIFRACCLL

[5] = biological target: T1, Polyadenylate-binding protein 1; experiment: PABP1 MLLE–PAM2 interaction inhibitors, dose response, miRNA deadenylation inhibitor project, biochemical, fluorescence polarization, Cy5-PAM2 peptide, secondary (AID 602260); format: functional; settings: read-out: IC50_Mean
[6] = THP-1 cell cytotoxicity, dose response, cytotoxicity control for Vif-APOBEC3G degradation inhibitor project, THP-1 cells (AID 1117359); format: functional; settings: Human immunodeficiency virus 1, THP-1
Aspartyl aminopeptidase = Aspartyl aminopeptidase (Plasmodium falciparum 3D7, UniProt Q8I2J3)
[7] = biological target: Eukaryotic translation initiation factor 4E (Mus musculus, UniProt P63073); experiment: eIF4E–eIF4G protein interaction inhibitors, dose response, biochemical, TR-FRET (AID 855); format: functional;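 also: potency for disrupting eIF4E binding to eIF4GI seen as loss of FRET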
[8] = biological target: Induced myeloid leukemia cell differentiation protein Mcl-1 (Homo sapiens, UniProt Q07820); format: functional
Procathepsin L = Procathepsin L (Homo sapiens, UniProt P07711)
[9] = biological target: T2, Runt-related transcription factor 1/Core-binding factor subunit beta; experiment: Confirmation of compounds inhibiting the binding between the RUNX1 Runt domain and CBFb-SMMHC via a time resolved fluorescence resonance energy transfer (TR-FRET) assay. [Related pubchem assays (depositor defined):AID1434, AID1438, AID1496, AID1560, AID1645]; format: protein assay
[10] = biological target: T2, Runt-related transcription factor 1/Core-binding factor subunit beta; experiment: Confirmation of compounds inhibiting the binding between the RUNX1 Runt domain and CBFb-SMMHC via a fluorescence resonance energy transfer (FRET) assay. [Related pubchem assays (depositor defined):AID1434, AID1438, AID1496, AID1550, AID1645]; format: protein assay
[11] = biological target: G-protein coupled receptor 55 (Homo sapiens, UniProt Q9Y2T6); experiment: SAR Analysis of Selective Antagonists of GPR55 using an Image-Based Assay - Set 4. [Related pubchem assays (depositor defined):AID2013, AID2026]; format: functional;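 also: antagonism of response to 5 µM lysophosphatidylinositol agonist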
Cannabinoid receptor 1 [12] = biological target: T4, Cannabinoid receptor 1 (Homo sapiens, UniProt P21554); experiment: SAR analysis of antagonists of the Cannabinoid Receptor 1 using an Image-Based Assay - Set 4. [Related pubchem assays (depositor defined):AID2013, AID2026]; format: functional
T4 sequence (P21554 whole entry): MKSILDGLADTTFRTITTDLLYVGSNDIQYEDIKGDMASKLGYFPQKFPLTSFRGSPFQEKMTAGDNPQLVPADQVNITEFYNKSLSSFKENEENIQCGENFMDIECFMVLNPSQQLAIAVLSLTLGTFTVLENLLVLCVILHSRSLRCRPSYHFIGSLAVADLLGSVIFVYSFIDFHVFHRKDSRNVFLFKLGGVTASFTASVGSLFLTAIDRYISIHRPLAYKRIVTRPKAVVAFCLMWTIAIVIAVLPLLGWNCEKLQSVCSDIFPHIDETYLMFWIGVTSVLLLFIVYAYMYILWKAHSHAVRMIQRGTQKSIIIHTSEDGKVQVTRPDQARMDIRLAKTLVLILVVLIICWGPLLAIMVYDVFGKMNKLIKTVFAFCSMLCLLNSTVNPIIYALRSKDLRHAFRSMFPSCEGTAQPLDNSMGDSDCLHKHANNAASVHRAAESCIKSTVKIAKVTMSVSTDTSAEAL

[13] = biological target: T5, G-protein coupled receptor 35 (Homo sapiens, UniProt Q9HC97); experiment: SAR analysis of Antagonists of the GPR35 Receptor using an Image-Based Assay - Set 6. [Related pubchem assays (depositor defined):AID2013, AID2026]; format: functional
T5 sequence (Q9HC97 whole entry): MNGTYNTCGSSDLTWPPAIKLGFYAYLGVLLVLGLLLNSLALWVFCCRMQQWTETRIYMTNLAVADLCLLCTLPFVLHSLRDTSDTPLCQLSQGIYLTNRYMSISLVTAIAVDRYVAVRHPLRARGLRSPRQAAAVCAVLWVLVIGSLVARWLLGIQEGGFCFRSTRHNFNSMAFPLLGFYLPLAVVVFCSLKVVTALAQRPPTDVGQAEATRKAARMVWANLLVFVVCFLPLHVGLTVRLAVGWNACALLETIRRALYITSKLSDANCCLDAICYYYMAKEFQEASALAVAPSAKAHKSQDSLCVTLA

Cannabinoid receptor 2 [14] = biological target: T6, Cannabinoid receptor 2 (Homo sapiens, UniProt P34972); experiment: SAR analysis of agonists of the Cannabinoid Receptor 2 using an Image-Based Assay - Set 3. [Related pubchem assays (depositor defined):AID2013, AID2026]; format: functional
T6 sequence (P34972 whole entry): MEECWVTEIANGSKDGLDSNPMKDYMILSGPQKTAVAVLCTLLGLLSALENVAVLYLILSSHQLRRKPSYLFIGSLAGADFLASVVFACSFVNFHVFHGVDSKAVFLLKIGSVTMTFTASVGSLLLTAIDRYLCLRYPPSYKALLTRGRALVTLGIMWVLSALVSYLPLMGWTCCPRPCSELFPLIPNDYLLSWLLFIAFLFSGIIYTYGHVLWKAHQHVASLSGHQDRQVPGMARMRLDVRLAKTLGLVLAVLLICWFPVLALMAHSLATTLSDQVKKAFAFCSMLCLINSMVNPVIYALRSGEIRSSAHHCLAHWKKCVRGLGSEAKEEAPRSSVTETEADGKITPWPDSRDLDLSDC

Cannabinoid receptor 2 [15] = biological target: T6, Cannabinoid receptor 2; experiment: SAR analysis of antagonists of the Cannabinoid Receptor 2 using an Image-Based Assay - Set 3. [Related pubchem assays (depositor defined):AID2013, AID2026]; format: functional
[16] = biological target: T5, G-protein coupled receptor 35; experiment: SAR analysis of Agonists of the GPR35 Receptor using an Image-Based Assay - Set 4. [Related pubchem assays (depositor defined):AID2013, AID2026]; format: functional
Cannabinoid receptor 1 [17] = biological target: T4, Cannabinoid receptor 1; experiment: SAR analysis of agonists of the Cannabinoid Receptor 1 using an Image-Based Assay - Set 4. [Related pubchem assays (depositor defined):AID2013, AID2026]; format: functional
[18] = biological target: Voltage-dependent T-type calcium channel subunit alpha-1H (Homo sapiens, UniProt O95180); experiment: Cav3.2 T-type channel inhibitors, synthesized analogs, SAR follow-up, cell-based, synthetic library set 2, HEK293 HH8, Fluo-4 (AID 493023); format: functional
Voltage-dependent T-type calcium channel subunit alpha-1H, sequence (O95180 whole entry): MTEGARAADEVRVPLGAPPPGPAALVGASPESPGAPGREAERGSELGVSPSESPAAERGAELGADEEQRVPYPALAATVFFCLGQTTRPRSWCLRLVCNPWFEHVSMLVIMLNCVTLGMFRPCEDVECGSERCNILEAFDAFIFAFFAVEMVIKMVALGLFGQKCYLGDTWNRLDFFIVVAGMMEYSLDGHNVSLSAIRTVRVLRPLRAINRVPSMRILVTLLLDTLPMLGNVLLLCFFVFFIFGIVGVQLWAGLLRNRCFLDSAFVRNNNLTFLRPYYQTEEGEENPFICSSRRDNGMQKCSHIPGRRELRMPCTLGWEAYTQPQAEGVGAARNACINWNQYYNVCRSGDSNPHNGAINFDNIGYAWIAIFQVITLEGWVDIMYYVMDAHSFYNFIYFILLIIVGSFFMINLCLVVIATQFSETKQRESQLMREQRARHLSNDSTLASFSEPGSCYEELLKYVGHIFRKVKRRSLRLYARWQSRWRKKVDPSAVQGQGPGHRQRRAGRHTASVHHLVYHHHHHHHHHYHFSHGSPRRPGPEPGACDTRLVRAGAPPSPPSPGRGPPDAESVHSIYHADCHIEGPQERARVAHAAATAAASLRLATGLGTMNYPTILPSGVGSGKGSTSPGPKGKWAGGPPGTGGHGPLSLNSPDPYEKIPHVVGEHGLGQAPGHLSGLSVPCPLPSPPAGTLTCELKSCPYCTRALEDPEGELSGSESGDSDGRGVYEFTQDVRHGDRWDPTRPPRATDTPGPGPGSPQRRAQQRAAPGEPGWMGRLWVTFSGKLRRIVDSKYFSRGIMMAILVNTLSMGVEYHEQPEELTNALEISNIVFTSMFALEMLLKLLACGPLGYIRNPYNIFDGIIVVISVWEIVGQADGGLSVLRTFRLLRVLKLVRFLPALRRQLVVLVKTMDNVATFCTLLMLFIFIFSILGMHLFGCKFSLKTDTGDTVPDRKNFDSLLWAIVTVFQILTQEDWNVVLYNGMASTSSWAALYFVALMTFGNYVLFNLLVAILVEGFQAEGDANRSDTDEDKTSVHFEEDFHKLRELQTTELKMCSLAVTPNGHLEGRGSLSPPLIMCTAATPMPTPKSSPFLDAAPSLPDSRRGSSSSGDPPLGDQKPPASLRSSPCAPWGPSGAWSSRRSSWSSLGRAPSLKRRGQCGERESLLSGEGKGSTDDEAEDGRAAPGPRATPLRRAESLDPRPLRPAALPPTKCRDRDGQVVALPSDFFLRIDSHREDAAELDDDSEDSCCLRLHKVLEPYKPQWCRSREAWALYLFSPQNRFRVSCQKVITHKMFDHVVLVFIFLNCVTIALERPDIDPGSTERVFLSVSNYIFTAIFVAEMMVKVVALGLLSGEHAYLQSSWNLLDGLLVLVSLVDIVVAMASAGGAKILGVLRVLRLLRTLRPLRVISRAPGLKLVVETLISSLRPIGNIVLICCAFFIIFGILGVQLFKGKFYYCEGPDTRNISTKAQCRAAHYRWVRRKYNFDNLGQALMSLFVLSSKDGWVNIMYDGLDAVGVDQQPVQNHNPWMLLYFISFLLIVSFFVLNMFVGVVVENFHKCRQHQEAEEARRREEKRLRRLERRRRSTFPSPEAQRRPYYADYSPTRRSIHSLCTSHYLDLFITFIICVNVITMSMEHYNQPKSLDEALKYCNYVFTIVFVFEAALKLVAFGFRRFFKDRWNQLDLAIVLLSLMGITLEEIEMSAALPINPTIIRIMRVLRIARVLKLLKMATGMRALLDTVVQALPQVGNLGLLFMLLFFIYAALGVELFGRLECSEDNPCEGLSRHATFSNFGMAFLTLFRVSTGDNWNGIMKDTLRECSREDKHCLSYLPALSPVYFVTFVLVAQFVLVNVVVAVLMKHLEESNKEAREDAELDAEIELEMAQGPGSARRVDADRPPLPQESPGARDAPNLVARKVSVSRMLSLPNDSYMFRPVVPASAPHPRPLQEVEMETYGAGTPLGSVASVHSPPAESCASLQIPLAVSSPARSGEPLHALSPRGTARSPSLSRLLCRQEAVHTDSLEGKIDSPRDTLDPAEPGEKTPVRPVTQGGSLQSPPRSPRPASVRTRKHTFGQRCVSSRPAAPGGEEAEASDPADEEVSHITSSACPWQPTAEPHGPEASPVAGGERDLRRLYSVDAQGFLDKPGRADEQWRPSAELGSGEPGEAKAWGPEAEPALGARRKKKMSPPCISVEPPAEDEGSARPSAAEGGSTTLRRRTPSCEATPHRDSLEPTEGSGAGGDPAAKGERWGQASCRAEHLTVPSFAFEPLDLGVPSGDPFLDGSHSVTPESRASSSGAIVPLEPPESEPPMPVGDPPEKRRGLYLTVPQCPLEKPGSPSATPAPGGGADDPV

[19] = A small molecule screen for inhibitors of the PhoP region in Salmonella typhi (5) using purified and synthesized compounds. [Related pubchem assays (depositor defined):AID1850, AID1864, AID1985, AID2252, AID2384, AID2612, AID2811, AID434995]; format: functional
[20] = inhibitors of SNCA 5'UTR-driven reporter translation, confirmation, H4 neuroglioma cells, luminescence (AID 1988); format: functional, cell-based
[21] = biological target: T7, Ubiquitin-conjugating enzyme E2 N (Homo sapiens, UniProt P61088); format: functional
T7 sequence (P61088 whole entry): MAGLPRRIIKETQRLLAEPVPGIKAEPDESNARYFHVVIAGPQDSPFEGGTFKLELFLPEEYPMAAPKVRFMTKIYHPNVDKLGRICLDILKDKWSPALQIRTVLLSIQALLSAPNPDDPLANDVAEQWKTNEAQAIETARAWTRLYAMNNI

[22] = tested on: Streptococcus sp. 'group A'; experiment: growth inhibition of control SK(-) GAS strain, dose response, counter-screen for streptokinase expression inhibitor project, luminescence, kanamycin, BacTiterGlo, confirmation (AID 1900); format: functional, organism-based
[23] = biological target: T8, Apoptotic protease-activating factor 1 (Homo sapiens, UniProt O14727); format: functional
T8 sequence (O14727 whole entry): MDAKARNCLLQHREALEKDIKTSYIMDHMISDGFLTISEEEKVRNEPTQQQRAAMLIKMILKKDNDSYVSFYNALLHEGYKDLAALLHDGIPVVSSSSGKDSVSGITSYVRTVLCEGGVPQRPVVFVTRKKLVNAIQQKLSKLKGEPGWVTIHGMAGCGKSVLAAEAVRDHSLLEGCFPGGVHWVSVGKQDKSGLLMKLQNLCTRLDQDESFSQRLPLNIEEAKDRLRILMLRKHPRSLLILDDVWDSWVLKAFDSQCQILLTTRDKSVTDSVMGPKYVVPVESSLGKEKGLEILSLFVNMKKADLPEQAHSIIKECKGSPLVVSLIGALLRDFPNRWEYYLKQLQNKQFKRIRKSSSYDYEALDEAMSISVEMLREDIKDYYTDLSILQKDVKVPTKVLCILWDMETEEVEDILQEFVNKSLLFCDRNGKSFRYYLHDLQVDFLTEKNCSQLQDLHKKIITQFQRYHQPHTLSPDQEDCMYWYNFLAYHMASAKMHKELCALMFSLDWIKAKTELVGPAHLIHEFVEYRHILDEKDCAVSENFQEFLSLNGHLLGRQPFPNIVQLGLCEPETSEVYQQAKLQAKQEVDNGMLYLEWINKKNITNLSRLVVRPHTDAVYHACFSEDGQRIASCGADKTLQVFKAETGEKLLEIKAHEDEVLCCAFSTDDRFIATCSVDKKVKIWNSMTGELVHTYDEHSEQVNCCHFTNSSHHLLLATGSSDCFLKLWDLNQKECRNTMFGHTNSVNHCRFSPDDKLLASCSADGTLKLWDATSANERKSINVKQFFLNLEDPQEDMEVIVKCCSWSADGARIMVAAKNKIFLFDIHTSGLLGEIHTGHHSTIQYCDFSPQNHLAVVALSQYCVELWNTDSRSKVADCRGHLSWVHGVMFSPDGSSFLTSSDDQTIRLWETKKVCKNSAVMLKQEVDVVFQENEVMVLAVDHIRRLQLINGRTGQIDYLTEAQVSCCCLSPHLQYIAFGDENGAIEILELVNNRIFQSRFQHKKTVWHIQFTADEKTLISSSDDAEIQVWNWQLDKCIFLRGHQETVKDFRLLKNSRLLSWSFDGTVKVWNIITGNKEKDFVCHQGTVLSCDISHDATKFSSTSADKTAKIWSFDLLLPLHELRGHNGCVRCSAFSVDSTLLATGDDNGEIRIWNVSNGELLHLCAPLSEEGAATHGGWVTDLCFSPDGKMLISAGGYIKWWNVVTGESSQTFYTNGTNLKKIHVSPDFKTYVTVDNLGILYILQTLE

[24] = inhibitors of firefly luciferase expression or activity, dose response, H4 neuroglioma cells, luminescence (AID 1990); format: functional, cell-based
Nonstructural protein 1 = Nonstructural protein 1 (Influenza A virus, UniProt Q194T2); format: functional, Influenza A virus (A/California/07/2009(H1N1))
Nonstructural protein 1, sequence (Q194T2 whole entry): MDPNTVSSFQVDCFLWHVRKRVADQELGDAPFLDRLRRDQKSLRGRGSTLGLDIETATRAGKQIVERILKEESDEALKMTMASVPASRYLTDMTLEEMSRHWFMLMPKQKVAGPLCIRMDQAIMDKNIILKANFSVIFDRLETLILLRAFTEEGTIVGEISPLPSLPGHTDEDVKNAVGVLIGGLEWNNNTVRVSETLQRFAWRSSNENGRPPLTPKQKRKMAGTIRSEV

[25] = Luminescence Cell-Based Dose Response HTS to Identify Inhibitors of 5'UTR Stem-Loop Driven Prion Protein mRNA Translation in H4 Neuroglioblastoma Cells. [Related pubchem assays: 1827 (Project Summary), 1813 (Primary HTS)]; format: functional
Streptococcus = experiment: Group A Streptococcus viability loss, dose response, counter-screen for streptokinase expression inhibitor project, luminescence, BacTiterGlo (AID 1915); format: functional, organism-based;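 also: potency for reduction of bacterial viability or growth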
Bcl-2-related protein A1 = biological target: T9, Bcl-2-related protein A1 (Mus musculus, UniProt Q07440); format: functional;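 also: confirmatory dose–response counterscreen on Bfl-1, used to check hits from a UBC13 polyubiquitin inhibitor campaign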
T9 sequence (Q07440 whole entry): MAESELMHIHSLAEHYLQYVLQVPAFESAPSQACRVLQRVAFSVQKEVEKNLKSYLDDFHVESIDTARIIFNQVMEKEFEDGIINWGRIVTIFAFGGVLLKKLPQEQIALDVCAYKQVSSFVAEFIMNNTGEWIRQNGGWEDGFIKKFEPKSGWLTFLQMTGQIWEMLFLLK

[26] = biological target: T7, Ubiquitin-conjugating enzyme E2 N; format: functional; remark: listed apart in the source

T1 sequence (P11940 whole entry): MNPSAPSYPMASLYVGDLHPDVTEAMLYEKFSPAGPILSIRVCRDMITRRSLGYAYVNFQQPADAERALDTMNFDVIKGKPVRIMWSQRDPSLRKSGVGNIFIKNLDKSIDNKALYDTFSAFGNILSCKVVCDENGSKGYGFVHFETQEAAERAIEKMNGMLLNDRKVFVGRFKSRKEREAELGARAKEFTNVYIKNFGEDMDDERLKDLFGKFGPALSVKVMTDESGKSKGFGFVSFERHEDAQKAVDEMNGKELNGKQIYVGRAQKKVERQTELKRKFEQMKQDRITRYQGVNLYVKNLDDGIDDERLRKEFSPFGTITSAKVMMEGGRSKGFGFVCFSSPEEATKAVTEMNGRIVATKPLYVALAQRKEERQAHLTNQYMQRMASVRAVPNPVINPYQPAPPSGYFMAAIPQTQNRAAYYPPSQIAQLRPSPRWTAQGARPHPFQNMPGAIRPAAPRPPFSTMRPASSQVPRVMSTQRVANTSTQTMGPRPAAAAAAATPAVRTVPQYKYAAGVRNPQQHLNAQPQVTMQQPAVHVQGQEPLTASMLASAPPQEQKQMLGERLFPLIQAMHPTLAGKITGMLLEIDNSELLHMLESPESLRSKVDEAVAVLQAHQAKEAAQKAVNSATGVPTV

## CN1CCc2cccc3c2[C@@H]1Cc1ccc(O)c(O)c1-3
[1]
  IC50: > 66 µM (inactive)
[2]
  IC50: 38.4 µM (inactive)
[3]
  IC50: 7.12 µM (active)
[4]
  IC50: 24.9 µM (active)
[5]
  IC50: > 66 µM (inactive)
[6]
  CC50: 15 µM (active)
Aspartyl aminopeptidase
  IC50: 3.1 µM (active)
[7]
  IC50: > 64 µM (inactive)
[8]
  IC50: < 0.4 µM (active)
Procathepsin L
  IC50: > 59.6 µM (not active)
[9]
  IC50: 17.8 µM (active)
[10]
  IC50: 8.48 µM (active)

## Cc1ccc2nc(-c3ccccn3)cc(C(=O)Nc3ccc(S(=O)(=O)N4CCOCC4)cc3)c2c1
[11]
  IC50: > 32 µM (inactive)
Cannabinoid receptor 1 [12]
  IC50: 5.37 µM (active)
[13]
  IC50: > 32 µM (inactive)
Cannabinoid receptor 2 [14]
  EC50: > 32 µM (inactive)
Cannabinoid receptor 2 [15]
  IC50: > 32 µM (inactive)
[16]
  EC50: > 32 µM (inactive)
Cannabinoid receptor 1 [17]
  EC50: > 32 µM (inactive)

## O=C(NC[C@@H]1[C@H]2CN(Cc3ccccc3)C[C@@H]12)c1cc(Cl)cc(Cl)c1
[18]
  EC50: 1.5 µM (active)

## O=C1C2=C(Nc3ccccc3SC2c2cccnc2)c2ccccc21 (stereo unspecified)
[19]
  IC50: > 150 µM (active)

## N=C(N)N/N=C/c1ccc(OCc2ccccc2)c(OCc2ccccc2)c1
[20]
  EC50: 19.9 µM (active)
[21]
  IC50: 6.15 µM (active)
[22]
  EC50: 5.75 µM (active)
[23]
  IC50: > 100 µM (inactive)
[24]
  EC50: 8.78 µM (active)
Nonstructural protein 1
  IC50: 49 µM (active)
[25]
  EC50: > 120 µM (not active)
Streptococcus
  EC50: 8.86 µM (active)
Bcl-2-related protein A1
  IC50: 16 µM (active)
[26]
  IC50: 5.05 µM (active)
